Data from PMC7011792 (Journal of Enzyme Inhibition and Medicinal Chemistry, 2017).
Read-outs that look alike come from different tables or passages of the source.

Legend:
huAChE = target: T1, huAChE (Homo sapiens, UniProt P22303); test: Kinetic study of huAChE inhibition (Lineweaver-Burk, Michaelis-Menten); type: biochemical; details: Lineweaver–Burk plots, 1, 2, 4, 10 nM
T1 construct: purchased Sigma-Aldrich C1682
Protocol: (§1) Kinetic studies were performed according to methods reported previously. The concentrations of the substrate ATC or BTC were prepared as 25, 50, 90, 150, 226, and 452 µM. Different concentrations of compound 19 with 0, 1, 2, 4, 10 nM, were also prepared by stock solution. For measurement, the enzymatic reaction was extended to 20 min (huAChE and huBuChE) before the determination of the absorption. Graph Pad Prism 5 was applied for data processing. Vmax and Km values of the Michaelis–Menten kinetics were determined by nonlinear regression from substrate-velocity curves, while Lineweaver–Burk plots were fitted by using linear regression method.

[1] = target: T2, BuChE (EC 3.1.1.8) from human (Homo sapiens, UniProt P06276); test: Human BuChE inhibition, Ellman's method; type: biochemical; details: huBuChE; mean ± SEM
T2 construct: purchased Sigma-Aldrich B4186
Protocol: (§2) AChE (EC 3.1.1.7, Type VI-S, from electric eel, C3389; from human, C1682) and BuChE (EC 3.1.1.8, from equine serum, C0663; from human, B4186), 5,5'-dithiobis (2-nitrobenzoic acid) (DTNB, D218200), acetylthiocholine iodide (ATC, A5751), and butyrylthiocholine iodide (BTC, B3253) were obtained from Sigma-Aldrich (St. Louis, MO).
(§3) The inhibitory effects of the synthesised compounds in this paper were evaluated according to our previously reported method. Briefly, AChE/BuChE stock solution was diluted to give 2.5 units/mL (for eeAChE, eqBuChE, and huAChE) or 0.5 units/mL for huBuChE. ATC/BTC iodide solution (0.075 M) was prepared in deionised water. DTNB solution (0.01 M) was prepared using water containing 0.15% (w/v) sodium bicarbonate. The assay buffer was prepared as follows: potassium dihydrogen phosphate (1.36 g, 10 mmol) was dissolved in 100 ml of water. The pH of the solution was then adjusted to 8.0 ± 0.1 with KOH. Stock solutions of the test samples were dissolved in ethanol to give a final concentration of 10^−4 M when diluted to the final volume of 3.32 ml. For each compound, a dilution series of at least five different concentrations (normally 10^−5–10^−9 M) were prepared.
For measurement, a cuvette containing 3.0 ml of phosphate buffer, 100 µL of AChE or BuChE, 100 µL of DTNB, and 100 µL of the test compound solution were added in sequence. The reaction was initiated after adding 20 µL of ATC or BTC, and the solution was mixed immediately. Two minutes (eeAChE and eqBuChE) or 15 min (huAChE and huBuChE) after ATC or BTC addition, the absorption was measured at 25 °C (eeAChE and eqBuChE) or 37 °C (huAChE and huBuChE) at 412 nm, using a Shimadzu 160 spectrophotometer. For the reference value, 100 µL of water replaced the test compound solution. For the blank control, additionally 100 µL of water replaced the enzyme solution. The measurement for each concentration was assayed in triplicate. GraphPad Prism 5 was used for data processing. […] The IC50 values were calculated according to the curve, and the data were shown in mean ± SEM.

huBuChE = target: T3, huBuChE (Homo sapiens, UniProt P06276); test: Kinetic study of huBuChE inhibition (Lineweaver-Burk, Michaelis-Menten); type: biochemical; details: Lineweaver–Burk plots, 1, 2, 4, 10 nM
T3 construct: purchased Sigma-Aldrich B4186
Protocol: as §1

[2] = target: T4, AChE (EC 3.1.1.7) from human (Homo sapiens, UniProt P22303); test: Human AChE inhibition, Ellman's method; type: biochemical
T4 construct: purchased Sigma-Aldrich C1682
Protocol: as §2, §3
For measurement, a cuvette containing 3.0 ml of phosphate buffer, 100 µL of AChE or BuChE, 100 µL of DTNB, and 100 µL of the test compound solution were added in sequence. The reaction was initiated after adding 20 µL of ATC or BTC, and the solution was mixed immediately. Two minutes (eeAChE and eqBuChE) or 15 min (huAChE and huBuChE) after ATC or BTC addition, the absorption was measured at 25 °C (eeAChE and eqBuChE) or 37 °C (huAChE and huBuChE) at 412 nm, using a Shimadzu 160 spectrophotometer. For the reference value, 100 µL of water replaced the test compound solution. For the blank control, additionally 100 µL of water replaced the enzyme solution. The measurement for each concentration was assayed in triplicate. GraphPad Prism 5 was used for data processing. The inhibition curve was fitted by plotting percentage enzyme activity (100% for the reference) versus logarithm of test compound concentration. The IC50 values were calculated according to the curve, and the data were shown in mean ± SEM.

Aβ1–42 = target: T5, Aβ1–42 (Homo sapiens, UniProt P05067); test: Inhibition of self-induced Aβ1–42 aggregation (Thioflavin T assay); type: biochemical; details: compound 25 μM, 24 h, read-out: Inhibitory rate on self-induced Aβ1-42 aggregation
T5 construct: aliquots of 2.0 µL of Aβ1–42 (AS-64129–05 Anaspec Inc.); purchased Anaspec Inc. AS-64129–05
Protocol: Inhibitory effects of the compounds on self-induced Aβ1–42 aggregation were evaluated using a Thioflavin T (ThT)-(T3516, Sigma-Aldrich, St. Louis, MO) binding assay according to the previously reported method. […] The Aβ1–42 and the test sample solutions were incubated for 24 h at the room temperature.
The inhibitory rate of Aβ1–42 self-induced aggregation was calculated according to the following equation: (1-IFi/IFc) × 100%. IFi and IFc were the fluorescence intensities in the presence and absence of inhibitors, respectively, after subtracting the background fluorescence of the 5 mM Thioflavin T solution. Each measurement was repeated in triplicate. The inhibitory rate of the test compound was shown in mean ± SD.

ICR mice [3] = test system: ICR mice
Protocol: The activity of AST and ALT, two indicators of liver damage, was determined using corresponding assay kit (EF551 and EF550 for ALT, EH027, and EF548 for AST, Wako, Japan).
One hour after the collection of retrobulbar blood, mice were sacrificed and livers were harvested for morphological studies by using immunohistochemical method. Two 3 mm sections of each liver extending from the hilus to the margin of the left lateral lobe were isolated by Ultra-Thin Semiautomatic Microtome (Leica RM2245, Germany) and immediately placed in 10% buffered formaldehyde, fixed for two days, and embedded together in one paraffin block by using Paraffin Embedding Station (Leica EG1150H, Germany). Subsequently, 5 µm sections were prepared from these paraffin blocks. They were deparaffinated and stained with hematoxylin and eosin or by means of the periodic acid-Schiff procedure for glycogen.

ICR mice [4] = test: Morris water maze test, scopolamine-induced cognitive impairment
[5] = 22 h after ig administration, 151.5 µmol/kg, mice serum, n = 6
[6] = 36 h after ig administration, 151.5 µmol/kg, mice serum, n = 6

T4 sequence (P22303 32-614): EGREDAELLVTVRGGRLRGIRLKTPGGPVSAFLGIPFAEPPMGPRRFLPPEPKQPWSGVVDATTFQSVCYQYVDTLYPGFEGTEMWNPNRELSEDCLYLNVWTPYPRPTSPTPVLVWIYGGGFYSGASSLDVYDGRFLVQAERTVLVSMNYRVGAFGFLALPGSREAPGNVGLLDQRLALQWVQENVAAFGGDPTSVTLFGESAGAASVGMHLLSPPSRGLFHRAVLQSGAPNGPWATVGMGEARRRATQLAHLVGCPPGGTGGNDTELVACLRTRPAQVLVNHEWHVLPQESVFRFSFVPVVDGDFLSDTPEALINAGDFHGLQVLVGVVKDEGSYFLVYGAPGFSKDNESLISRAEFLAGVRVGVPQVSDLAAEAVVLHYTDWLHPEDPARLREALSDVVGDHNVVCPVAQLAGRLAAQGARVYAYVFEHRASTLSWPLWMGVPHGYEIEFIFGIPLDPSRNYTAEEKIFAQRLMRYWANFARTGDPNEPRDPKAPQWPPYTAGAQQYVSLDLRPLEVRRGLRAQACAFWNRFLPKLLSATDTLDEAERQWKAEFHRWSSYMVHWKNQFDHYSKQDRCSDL
T3 sequence (P06276 29-602): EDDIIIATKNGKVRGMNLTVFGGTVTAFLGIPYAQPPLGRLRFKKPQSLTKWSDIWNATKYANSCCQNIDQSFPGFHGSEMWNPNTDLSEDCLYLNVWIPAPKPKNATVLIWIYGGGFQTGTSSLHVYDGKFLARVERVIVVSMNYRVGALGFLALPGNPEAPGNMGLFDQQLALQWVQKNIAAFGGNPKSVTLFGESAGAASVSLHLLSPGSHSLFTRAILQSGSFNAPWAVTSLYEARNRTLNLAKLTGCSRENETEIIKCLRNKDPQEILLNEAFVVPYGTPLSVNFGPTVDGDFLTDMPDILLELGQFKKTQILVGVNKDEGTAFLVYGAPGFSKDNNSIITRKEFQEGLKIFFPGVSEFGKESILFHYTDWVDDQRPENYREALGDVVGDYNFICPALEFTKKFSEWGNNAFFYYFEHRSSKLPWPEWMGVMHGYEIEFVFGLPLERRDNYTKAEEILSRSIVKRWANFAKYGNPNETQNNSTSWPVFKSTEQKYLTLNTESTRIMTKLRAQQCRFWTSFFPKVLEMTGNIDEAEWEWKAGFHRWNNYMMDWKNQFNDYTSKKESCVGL
T2 sequence (P06276 29-602): as above
T1 sequence (P22303 32-614): as the sequence (P22303 32-614) above
T5 sequence (P05067 672-713): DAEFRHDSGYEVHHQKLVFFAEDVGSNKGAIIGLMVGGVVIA

`O=C(/C=C/c1ccc([N+](=O)[O-])cc1)NCCCCCCNc1c2c(nc3ccccc13)CCCC2` [Compound 19, (E)-3-(4-nitrophenyl)-N-(6-((1,2,3,4-tetrahydroacridin-9-yl)amino)hexyl)acrylamide] was tested, and the “type of inhibition on huAChE” value (huAChE) was “noncompetitive”, the IC50 [1] was 6.3 nM and the “type of inhibition on huBuChE” value (huBuChE) was “mixed-type inhibition”. The IC50 ([2]; huAChE, mean ± SEM) was 10.2 nM, the “Selectivity index (SI) = BuChE IC50/AChE IC50, human enzymes” value ([2]; huBuChE IC50 / huAChE IC50) was 0.6 and the inhibition at 25 µM (Aβ1–42) was 31.8%. The “AST (U/L)” value (ICR mice [3]; 8 h after ig administration, 151.5 µmol/kg, mice serum, n = 6) was 119.6 ± 10.8 U/L, the “ALT (U/L)” value (ICR mice [3]; [5]) was 44.4 ± 3.9 U/L and the “AST (U/L)” value (ICR mice [3]; [5]) was 130.6 ± 8.2 U/L. The “ALT (U/L)” value (ICR mice [3]; [6]) was 40.2 ± 2.5 U/L, the “AST (U/L)” value (ICR mice [3]; [6]) was 133.9 ± 13.5 U/L and the “ALT (U/L)” value (ICR mice [3]; mouse, in vivo) was 36.0 ± 2.9 U/L. The “morphologic changes in liver” value (ICR mice [3]; mouse, in vivo) was “did not cause remarkable morphologic changes in liver”, the “Latency to target (second), Day 5” value (ICR mice [4]; learning and training, Day 5, oral, plus scopolamine, ICR mice) was 54.1 ± 8.9 s and the “Latency to target (second), Day 6” value (ICR mice [4]; learning and training, Day 6, oral, plus scopolamine, ICR mice) was 36.5 ± 4.2 s. For the same compound, the “Latency to target (second), Day 7” value (ICR mice [4]; learning and training, Day 7, oral, plus scopolamine, ICR mice) was 36.6 ± 4.3 s, the “Latency to target (second), Day 8” value (ICR mice [4]; learning and training, Day 8, oral, plus scopolamine, ICR mice) was 35.2 ± 4.7 s and the “Latency to target (second), Day 9” value (ICR mice [4]; learning and training, Day 9, oral, plus scopolamine, ICR mice) was 26.1 ± 1.4 s. The “Latency to Target” value (ICR mice [4]; probe trial, oral administration plus scopolamine (1 mg/kg ip), ICR mice, mean ± SEM, n = 6) was 25.0 ± 1.5 s and the “trajectory in the Morris water maze test” value (ICR mice [4]; scopolamine-impaired ICR mice, compared to tacrine group) was “much shortened distances as compared to tacrine group”.
